According to PubChem BioAssay AID192 (DTP/NCI, 2004):
Where “and” joins values, the source holds several entries; their conditions need not be identical. Equal entries are not always repeated. Toxic doses and inconclusive results are not listed. The calls were made as follows: active = survival T/C of 150% or more; inactive = T/C below 125% in these data.

System: BDF1 mice, B16 melanoma ip, median survival T/C
Experiment: NCI In Vivo Anticancer Drug Screen. Data for tumor model B16 Melanoma (intraperitoneal) in B6D2F1 (BDF1) mice
Conditions: endpoint: median survival time, higher = longer survival
In short: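 Mice with transplantable tumors; drug vs vehicle groups; endpoint survival or tumor size; value = T/C.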

[1] = dose: 100.0 mg/kg/injection, schedule: Q01DX009 (ip), vehicle: saline with Tween-80
[2] = dose: 200.0 mg/kg/injection, schedule: Q01DX009 (ip), vehicle: saline with Tween-80
[3] = dose: 400.0 mg/kg/injection, schedule: Q01DX009 (ip), vehicle: saline with Tween-80
[4] = dose: 25.0 mg/kg/injection, schedule: Q01DX009 (ip), vehicle: saline with Tween-80
[5] = dose: 50.0 mg/kg/injection, schedule: Q01DX009 (ip), vehicle: saline with Tween-80
[6] = dose: 3.13 mg/kg/injection, schedule: Q01DX009 (ip), vehicle: saline with Tween-80
[7] = dose: 6.25 mg/kg/injection, schedule: Q01DX009 (ip), vehicle: saline with Tween-80
[8] = dose: 12.5 mg/kg/injection, schedule: Q01DX009 (ip), vehicle: saline with Tween-80

Measured: T/C

Nc1ccnc(=O)[nH]1
inactive: dose: 32.0 mg/kg/injection, schedule: Q01DX009 (ip), vehicle: Klucel (hydroxypropylcellulose) (HPC) 98 % of control and 102 % of control | dose: 32.0 mg/kg/injection, schedule: Q01DX009 (ip), vehicle: saline with Tween-80 113 % of control | dose: 32.0 mg/kg/injection, schedule: Q01DX009 (ip), vehicle: saline 104 % of control | dose: 64.0 mg/kg/injection, schedule: Q01DX009 (ip), vehicle: Klucel (hydroxypropylcellulose) (HPC) 101 % of control and 106 % of control | dose: 64.0 mg/kg/injection, schedule: Q01DX009 (ip), vehicle: saline with Tween-80 97 % of control | dose: 64.0 mg/kg/injection, schedule: Q01DX009 (ip), vehicle: saline 110 % of control | dose: 128.0 mg/kg/injection, schedule: Q01DX009 (ip), vehicle: Klucel (hydroxypropylcellulose) (HPC) 103 % of control and 113 % of control | dose: 128.0 mg/kg/injection, schedule: Q01DX009 (ip), vehicle: saline with Tween-80 103 % of control | dose: 128.0 mg/kg/injection, schedule: Q01DX009 (ip), vehicle: saline 119 % of control | dose: 256.0 mg/kg/injection, schedule: Q01DX009 (ip), vehicle: Klucel (hydroxypropylcellulose) (HPC) 94 % of control and 103 % of control | dose: 256.0 mg/kg/injection, schedule: Q01DX009 (ip), vehicle: saline 105 % of control | dose: 512.0 mg/kg/injection, schedule: Q01DX009 (ip), vehicle: Klucel (hydroxypropylcellulose) (HPC) 100 % of control and 102 % of control | dose: 512.0 mg/kg/injection, schedule: Q01DX009 (ip), vehicle: saline with Tween-80 111 % of control | dose: 512.0 mg/kg/injection, schedule: Q01DX009 (ip), vehicle: saline 110 % of control

COc1cc2c(cc1O)C(=O)CCCC2
inactive: [1] 107 % of control | [2] 101 % of control | [3] 89 % of control and 101 % of control

CCCCC[C@H](O)/C=C/[C@@H]1[C@@H](C/C=C\CCCC(=O)O)[C@@H](O)C[C@H]1O
inactive: dose: 0.25 mg/kg/injection, schedule: Q#A X020 (ip), vehicle: saline with Tween-80 109 % of control | dose: 1.0 mg/kg/injection, schedule: Q#A X020 (ip), vehicle: saline with Tween-80 100 % of control | dose: 2.0 mg/kg/injection, schedule: Q#A X020 (ip), vehicle: saline with Tween-80 110 % of control | dose: 10.0 mg/kg/injection, schedule: Q04DX002 (ip), vehicle: saline 113 % of control | dose: 20.0 mg/kg/injection, schedule: Q04DX002 (ip), vehicle: saline 95 % of control | dose: 40.0 mg/kg/injection, schedule: Q04DX002 (ip), vehicle: saline 108 % of control | dose: 80.0 mg/kg/injection, schedule: Q04DX002 (ip), vehicle: saline 108 % of control | dose: 160.0 mg/kg/injection, schedule: Q04DX002 (ip), vehicle: saline 97 % of control | dose: 320.0 mg/kg/injection, schedule: Q04DX002 (ip), vehicle: saline 97 % of control

C=CCN1CCC(C(=O)CC)(c2ccccc2)CC1
inactive: dose: 10.0 mg/kg/injection, schedule: Q04DX003 (ip), vehicle: Klucel (hydroxypropylcellulose) (HPC) 111 % of control | dose: 20.0 mg/kg/injection, schedule: Q04DX003 (ip), vehicle: Klucel (hydroxypropylcellulose) (HPC) 114 % of control | dose: 40.0 mg/kg/injection, schedule: Q04DX003 (ip), vehicle: Klucel (hydroxypropylcellulose) (HPC) 114 % of control

CSCCC1NC(=O)C(/C(C)=N\NC(N)=O)=C1O (configuration not stated)
inactive: [4] 111 % of control | [5] 105 % of control | [1] 96 % of control | [2] 96 % of control

CCCCC(SC(CC)(C(N)=O)c1ccccc1)C(=O)O (configuration not stated)
inactive: [5] 100 % of control | [1] 99 % of control | [2] 92 % of control | [3] 90 % of control

COc1cc(C(C)c2cc3c(cc2OCCO)OCO3)cc(OC)c1OC (configuration not stated)
inactive: [4] 107 % of control | [5] 104 % of control | [1] 110 % of control | [2] 112 % of control

Nc1cccs1
inactive: dose: 12.5 mg/kg/injection, schedule: Q01DX009 (ip), vehicle: saline 108 % of control | dose: 25.0 mg/kg/injection, schedule: Q01DX009 (ip), vehicle: saline 99 % of control | dose: 50.0 mg/kg/injection, schedule: Q01DX009 (ip), vehicle: saline 94 % of control

CCN(CCP(c1ccccc1)c1ccccc1)CCP(c1ccccc1)c1ccccc1
inactive: [6] 119 % of control | [7] 113 % of control | [8] 90 % of control and 115 % of control | dose: 12.5 mg/kg/injection, schedule: Q04DX003 (ip), vehicle: saline with Tween-80 104 % of control | [4] 100 % of control | dose: 25.0 mg/kg/injection, schedule: Q04DX003 (ip), vehicle: saline with Tween-80 107 % of control | dose: 50.0 mg/kg/injection, schedule: Q04DX003 (ip), vehicle: saline with Tween-80 109 % of control

CCCCCCC(C)NCC(O)COc1cccc(C)c1 (configuration not stated)
inactive: dose: 3.12 mg/kg/injection, schedule: Q01DX009 (ip), vehicle: Klucel (hydroxypropylcellulose) (HPC) 90 % of control | dose: 6.25 mg/kg/injection, schedule: Q01DX009 (ip), vehicle: Klucel (hydroxypropylcellulose) (HPC) 94 % of control | dose: 12.5 mg/kg/injection, schedule: Q01DX009 (ip), vehicle: Klucel (hydroxypropylcellulose) (HPC) 89 % of control

COc1ccc(OC)c(/C=C/c2ccnc3ccccc23)c1
inactive: dose: 50.0 mg/kg/injection, schedule: Q01DX009 (ip), vehicle: saline sonified 113 % of control | dose: 100.0 mg/kg/injection, schedule: Q01DX009 (ip), vehicle: saline sonified 107 % of control | dose: 200.0 mg/kg/injection, schedule: Q01DX009 (ip), vehicle: saline sonified 113 % of control

O=Cc1ccc(C=O)c(Cl)c1
inactive: dose: 50.0 mg/kg/injection, schedule: Q01DX009 (ip), vehicle: Klucel (hydroxypropylcellulose) (HPC) 97 % of control | dose: 100.0 mg/kg/injection, schedule: Q01DX009 (ip), vehicle: Klucel (hydroxypropylcellulose) (HPC) 109 % of control | dose: 200.0 mg/kg/injection, schedule: Q01DX009 (ip), vehicle: Klucel (hydroxypropylcellulose) (HPC) 107 % of control | dose: 400.0 mg/kg/injection, schedule: Q01DX009 (ip), vehicle: Klucel (hydroxypropylcellulose) (HPC) 104 % of control

COc1cc2c(c(OC)c1OC)-c1c(cc3c(c1OC)OCO3)CC(C)C(C)(O)C2OC(=O)c1ccccc1 (configuration not stated)
inactive: dose: 11.25 mg/kg/injection, schedule: Q01DX009 (ip), vehicle: saline + Tween-80 + alcohol 106 % of control | dose: 22.5 mg/kg/injection, schedule: Q01DX009 (ip), vehicle: saline + Tween-80 + alcohol 97 % of control | dose: 45.0 mg/kg/injection, schedule: Q01DX009 (ip), vehicle: saline + Tween-80 + alcohol 97 % of control | dose: 90.0 mg/kg/injection, schedule: Q01DX009 (ip), vehicle: saline + Tween-80 + alcohol 91 % of control

c1ccc([C@H]2CN3CCSC3=N2)cc1
inactive: dose: 0.15 mg/kg/injection, schedule: Q01DX009 (ip), vehicle: saline 97 % of control | dose: 0.31 mg/kg/injection, schedule: Q01DX009 (ip), vehicle: saline 89 % of control and 102 % of control | dose: 0.63 mg/kg/injection, schedule: Q01DX009 (ip), vehicle: saline 102 % of control | dose: 1.25 mg/kg/injection, schedule: Q01DX009 (ip), vehicle: saline 102 % of control | dose: 2.5 mg/kg/injection, schedule: Q01DX009 (ip), vehicle: saline 103 % of control | dose: 5.0 mg/kg/injection, schedule: Q01DX009 (ip), vehicle: saline 89 % of control | dose: 10.0 mg/kg/injection, schedule: Q01DX009 (ip), vehicle: saline 89 % of control | dose: 20.0 mg/kg/injection, schedule: Q01DX009 (ip), vehicle: saline 107 % of control | dose: 40.0 mg/kg/injection, schedule: Q01DX009 (ip), vehicle: saline 86 % of control

O=C(N/N=C\c1ccc(N(CCCl)CCCl)cc1)c1cccnc1
inactive: dose: 100.0 mg/kg/injection, schedule: Q01DX009 (ip), vehicle: gum acacia 91 % of control | dose: 200.0 mg/kg/injection, schedule: Q01DX009 (ip), vehicle: gum acacia 102 % of control | dose: 400.0 mg/kg/injection, schedule: Q01DX009 (ip), vehicle: gum acacia 102 % of control

Cc1cc(Cl)ccc1NC(=O)COc1ccc(Cl)cc1
inactive: [6] 104 % of control | [7] 98 % of control | [8] 88 % of control and 95 % of control | [4] 93 % of control | [5] 91 % of control

O=C(O)C1CC(c2ccccc2)=NN1c1ccccc1 (configuration not stated)
inactive: dose: 12.5 mg/kg/injection, schedule: Q01DX009 (ip), vehicle: water 104 % of control | dose: 25.0 mg/kg/injection, schedule: Q01DX009 (ip), vehicle: water 99 % of control and 100 % of control | dose: 50.0 mg/kg/injection, schedule: Q01DX009 (ip), vehicle: water 99 % of control | dose: 100.0 mg/kg/injection, schedule: Q01DX009 (ip), vehicle: water 97 % of control and 110 % of control | dose: 200.0 mg/kg/injection, schedule: Q01DX009 (ip), vehicle: water 104 % of control and 110 % of control
